Measurements: article PMC9313321 (Biomedicines, 2022)
Several values for one entry are separate records, joined by “and”; a condition that tells them apart may be missing. Identical values can stand only once.

How the values were obtained:
Aβ42 fibrils = biological target: T1, Aβ42 fibrils (Homo sapiens, UniProt P05067); experiment: TEM assay of Aβ42 fibrils in the absence of Cu(II); assay type: biochemical; conditions: 48 h 37 °C; for Aβ42 fibril width / Reduction of fibril width vs Aβ42 alone: TEM; for Aβ42 fibril width: CAβ42 = CL = 50 µM, Aβ42 alone 4.9 ± 0.2 nm; for Reduction of fibril width vs Aβ42 alone: 50 µM
T1 construct: Beta-amyloid protein, fragment 1-42; purchased Sigma-Aldrich
Method: (§1) To perform the TEM assays, commercial Aβ42 purchased from Sigma-Aldrich was pre-treated with pure HFIP, a beta-sheet disruptor, to obtain homogeneous and monomeric Aβ42 [54]. Then, 222 µL of HFIP was added to 1 mg of Aβ42, after which the mixture was vortexed and aliquoted into Eppendorfs. The Eppendorfs were placed in a SpeedVac at 45 °C for 30 min until all HFIP was evaporated. Pre-treated Aβ42 was stored at −20 °C until use. To start the amyloid incubations, pre-treated Aβ42 was equilibrated at room temperature for 30 min. A solution of 5 mM was obtained by dissolution in DMSO and sonication for 5 min. Subsequently, 10 mM HCl was added to obtain a working Aβ42 solution of 200 µM. Stock solutions of Cu(II) and RIV–BIM compounds (4a–d, 5a,b and 5d) at 200 µM were prepared on the same day and working solutions of Aβ42, Aβ42 + Cu(II), Aβ42 + RIV–BIM and Aβ42 + Cu(II) + RIV–BIM (CAβ42 = CCu = CL = 50 µM) were prepared by diluting stock solutions in 10 mM HCl. Working solutions were incubated for 48 h at 37 °C before being analyzed by TEM. Samples were negatively stained with uranyl acetate 2% (w/v) and analyzed at 100 kv with a JEOL JEM 1400 Plus transmission electron microscope. Fibrils of Aβ42 alone were compared with Aβ42 + RIV–BIM fibrils, and fibrils of Aβ42 + Cu(II) were compared with Aβ42 + Cu(II) + RIV–BIM in order to evaluate the inhibition of the amyloid aggregation, and the widths and lengths of fibrils were measured for each sample. The ImageJ program was used to measure the fibrils (n = 200).
To perform the Aβ42 aggregation assays by TEM, fibrils were incubated using a fluorescence procedure previously described.
Amyloid fibrils remained disaggregated under the effect of the RIV–BIM compounds after 48 h of incubation. […] For each of the performed assays, fibril width was measured, and the results are graphed in Figure 5. Aβ42 fibril width in the absence of Cu(II) (Figure 5a) was 4.9 ± 0.2 nm, and it was modified in the presence of all RIV–BIM compounds: compound 4d was the only one that widened amyloid fibrils (6.7 ± 0.3 nm), while the rest of the compounds narrowed them (3.3–4.5 nm).

Aβ42 + Cu(II) fibrils = biological target: T2, Aβ42 + Cu(II) fibrils (Homo sapiens, UniProt P05067); experiment: TEM assay of Aβ42 fibrils in the presence of Cu(II); assay type: biochemical; conditions: 48 h 37 °C; for Aβ42 fibril width: TEM, CAβ42 = CCu = CL = 50 µM, Aβ42 + Cu(II) 6.8 ± 0.3 nm
T2 construct: Beta-amyloid protein, fragment 1-42; purchased Sigma-Aldrich
Method: as §1
When fibrils were incubated in the presence of Cu(II) for 48 h (Figure 6), stronger amyloid elongated aggregation was evidenced. In fact, incubation with Cu(II) in the absence of RIV–BIM compounds (Figure 5a) presented higher aggregation than that corresponding to Aβ42 alone (Figure 5a). Based on the TEM images contained in Figure 6, compounds belonging to the linear series of hybrids (4a–4d) seem to exert minor effects on Cu(II)-induced Aβ42 aggregation according to the previous fluorescence data.
Fibril width for Aβ42 + Cu(II) + RIV–BIM incubations was also measured (Figure 5b). When Aβ42 was incubated with Cu(II) ((6.8 ± 0.3) nm), the amyloid fibrils suffered a width increase of 38.8%, in contrast to Aβ42 alone (Figure 5a).

T2 sequence (P05067 672-713 limits assumed): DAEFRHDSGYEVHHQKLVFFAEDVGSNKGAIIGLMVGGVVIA
T1 sequence (P05067 672-713 limits assumed): as above

SMILES	Aβ42 fibril width (Aβ42 fibrils)	Appearance of Aβ42 aggregation in TEM images (Aβ42 + Cu(II) fibrils)	Aβ42 fibril width (Aβ42 + Cu(II) fibrils)	Appearance of Aβ42 fibrils in TEM images (Aβ42 fibrils)	Reduction of fibril width vs Aβ42 alone (Aβ42 fibrils) [%]
CCN(C)C(=O)Oc1cccc(NC(=O)c2cccc3[nH]c(-c4ccccc4O)nc23)c1 [Compound 5a, 3-(2-(2-Hydroxyphenyl)-1H-benzo[d]imidazole-4-carboxamido)phenyl Ethylmethylcarbamate]	4.5 nm	sparser amyloid aggregation	4.9 nm and 4.9 ± 0.2 nm		
CCN(C)C(=O)Oc1cccc(NC(=O)c2ccc3nc(-c4ccccc4O)[nH]c3c2)c1 [Compound 4a, 3-(2-(2-Hydroxyphenyl)-1H-benzo[d]imidazole-6-carboxamido)phenyl Ethylmethylcarbamate]	4.1 nm		4.7 nm	shortest fibrils	
CCN(C)C(=O)Oc1ccc(CCCNC(=O)c2cccc3[nH]c(-c4ccccc4O)nc23)cc1 [Compound 5d, 4-(3-(2-(2-Hydroxyphenyl)-1H-benzo[d]imidazole-4-carboxamido) Propyl) Phenyl Ethyl(methyl)carbamate]	3.3 nm and 3.3 ± 0.2 nm	sparser amyloid aggregation	3.9 nm		32.7
CCN(C)C(=O)Oc1cccc(CCNC(=O)c2ccc3nc(-c4ccccc4O)[nH]c3c2)c1 [Compound 4c, 3-(2-(2-(2-Hydroxyphenyl)-1H-benzo[d]imidazole-6-carboxamido)ethyl) Phenylethylmethylcarbamate]	4.1 nm		4.6 nm	quite elongated fibrils	
CCN(C)C(=O)Oc1cccc(CNC(=O)c2ccc3nc(-c4ccccc4O)[nH]c3c2)c1 [Compound 4b, 3-((2-(2-Hydroxyphenyl)-1H-benzo[d]imidazole-6-carboxamido)methyl) Phenyl Ethylmethylcarbamate]	4.1 nm		4.8 nm	shortest fibrils	
CCN(C)C(=O)Oc1ccc(CCCNC(=O)c2ccc3nc(-c4ccccc4O)[nH]c3c2)cc1 [Compound 4d, 4-(3-(2-(2-Hydroxyphenyl)-1H-benzo[d]imidazole-6-carboxamido)propyl) Phenyl Ethylmethylcarbamate]	6.7 nm and 6.7 ± 0.3 nm			quite elongated fibrils	
CCN(C)C(=O)Oc1cccc(CNC(=O)c2cccc3[nH]c(-c4ccccc4O)nc23)c1 [Compound 5b, 3-((2-(2-Hydroxyphenyl)-1H-benzo[d]imidazole-4-carboxamido)methyl) Phenyl Ethylmethylcarbamate]	3.8 nm and 3.8 ± 0.1 nm	sparser amyloid aggregation	4.1 nm	shortest fibrils	22.4
